Source: patent publication US20150335547A1, “ORAL CARE COMPOSITION CONTAINING IONIC LIQUIDS” (priority 2012, published 2015)

Each molecule was assayed on biofilm (assay: biofilm removal by ionic liquids (training set for QSFR model)). Conditions: where two values were available (MMPZ MeSO4, EMIM Tosylate) the value obtained at the higher pH.
Type: cell-based
Source text: The process of QSFR model building involves assembling a dataset with experimental results and molecular structures, descriptor calculation and contingency analysis followed by model generation and validations. Ionic liquids with biofilm removal data served as a data set for model generation. The details of the dataset are shown in Table 1 (ID and biofilm removal data for ionic liquids selected for model generation (training set).

In order of rising “% removal of biofilm” value:
1. CCCCn1cc[n+](C)c1.[Cl-] [BMIM Cl, 1-butyl-3-methylimidazolium (BMIM) chloride (Cl)]  43.8%
2. CCn1cc[n+](C)c1.[Cl-] [EMIM Cl, 1-ethyl-3-methylimidazolium (EMIM) chloride (Cl)]  44.3%
3. C=CCn1cc[n+](C)c1.[Cl-] [AMIM Cl, 1-allyl-3-methylimidazolium (AMIM) chloride]  44.8%
4. CCCCn1cc[n+](C)c1.[Br-] [BMIM Br, BMIM bromide (Br)]  48.0%
5. 1-ethyl-3-methylimidazolium ethylsulphate [EMIM Ethyl SO4]  48.1%
6. CCn1cc[n+](C)c1.[Br-] [EMIM Br, EMIM bromide (Br)]  48.6%
7. 1,2,3-trimethylimidazolium methyl sulfate [TMIM MeSO4]  51.8%
8. CCOP(=O)([O-])OCC.CCn1cc[n+](C)c1 [EMIM diethyl PO4, EMIM diethyl phosphate]  52.7%
9. Tris(2-hydroxyethyl)methylammonium methylsulphate [MTEOA MeSO4]  52.8%
10. CCCCn1cc[n+](C)c1.COS(=O)(=O)[O-] [BMIM MeSO4, BMIM methyl sulfate]  53.9%
11. CC(=O)[O-].CCCCn1cc[n+](C)c1 [BMIMOAc, BMIM acetate (OAc)]  55.9%
12. CCCCCCCCCCn1cc[n+](C)c1.[Cl-] [DMIM CL, 1-decyl-3-methylimidazolium (DMIM) chloride]  57.3%
13. COS(=O)(=O)[O-].Cc1cn(C)[n+](C)c1 [MMMPz MeSO4, 1,2,4-trimethylpyrazolium (MMMPZ) methyl sulfate]  57.8%
14. CCCCCCCCOS(=O)(=O)[O-].CCCCn1cc[n+](C)c1 [BMIM Octyl SO4, BMIM octyl sulfate]  58.6%
15. CCn1cc[n+](C)c1.Cc1ccc(S(=O)(=O)[O-])cc1 [EMIM Tosylate, EMIM tosylate]  59.5%
